Experimental data from the NIST ThermoML archive (doi:10.1016/j.tca.2012.01.013).

Columns and labels:
[1] = xn = mol fraction of the nth substance listed; conditions: 101 kPa, Liquid, Vibrating tube method
[2] = refractive index (Na D-line) (dimensionless); xn = mol fraction of the nth substance listed; conditions: 101 kPa, Liquid, Standard Abbe refractometry

COC(=O)c1ccccc1C(=O)OC [dimethyl 1,2-benzenedicarboxylate] + CCC(C)=O
Conditions	mass density, [1] [kg/m3]	refractive index, [2]
288.15 K, x1 = 0.1002	878.718	1.40705
288.15 K, x1 = 0.2001	936.554	1.42733
288.15 K, x1 = 0.3002	986.029	1.44555
288.15 K, x1 = 0.3997	1028.42	1.46042
288.15 K, x1 = 0.4982	1064.97	1.47261
288.15 K, x1 = 0.6001	1098.15	1.48425
288.15 K, x1 = 0.6993	1126.71	1.49362
288.15 K, x1 = 0.7993	1152.38	1.50271
288.15 K, x1 = 0.9002	1175.59	1.51071
288.15 K, x1 = 1	1196.26	1.51779
293.15 K, x1 = 0.1002	873.583	1.40471
293.15 K, x1 = 0.2001	931.496	1.42489
293.15 K, x1 = 0.3002	981.04	1.44315
293.15 K, x1 = 0.3997	1023.49	1.45808
293.15 K, x1 = 0.4982	1060.1	1.4703
293.15 K, x1 = 0.6001	1093.33	1.48198
293.15 K, x1 = 0.6993	1121.93	1.49141
293.15 K, x1 = 0.7993	1147.64	1.50053
293.15 K, x1 = 0.9002	1170.9	1.50855
293.15 K, x1 = 1	1191.59	1.51565
298.15 K, x1 = 0.1002	868.432	1.40224
298.15 K, x1 = 0.2001	926.423	1.42243
298.15 K, x1 = 0.3002	976.038	1.44075
298.15 K, x1 = 0.3997	1018.55	1.45576
298.15 K, x1 = 0.4982	1055.22	1.46801
298.15 K, x1 = 0.6001	1088.5	1.47972
298.15 K, x1 = 0.6993	1117.16	1.48918
298.15 K, x1 = 0.7993	1142.92	1.49835
298.15 K, x1 = 0.9002	1166.21	1.5064
298.15 K, x1 = 1	1186.93	1.51354
303.15 K, x1 = 0.1002	863.253	1.39965
303.15 K, x1 = 0.2001	921.334	1.41998
303.15 K, x1 = 0.3002	971.032	1.43839
303.15 K, x1 = 0.3997	1013.62	1.45342
303.15 K, x1 = 0.4982	1050.34	1.4657
303.15 K, x1 = 0.6001	1083.68	1.47746
303.15 K, x1 = 0.6993	1112.38	1.48696
303.15 K, x1 = 0.7993	1138.18	1.49618
303.15 K, x1 = 0.9002	1161.51	1.50426
303.15 K, x1 = 1	1182.28	1.51146
308.15 K, x1 = 0.1002	858.059	1.39705
308.15 K, x1 = 0.2001	916.232	1.41752
308.15 K, x1 = 0.3002	966.01	1.4359
308.15 K, x1 = 0.3997	1008.66	1.45091
308.15 K, x1 = 0.4982	1045.45	1.46339
308.15 K, x1 = 0.6001	1078.84	1.4752
308.15 K, x1 = 0.6993	1107.6	1.48475
308.15 K, x1 = 0.7993	1133.45	1.49399
308.15 K, x1 = 0.9002	1156.83	1.50211
308.15 K, x1 = 1	1177.62	1.50943
313.15 K, x1 = 0.1002	852.838	1.3943
313.15 K, x1 = 0.2001	911.111	1.41502
313.15 K, x1 = 0.3002	960.975	1.43328
313.15 K, x1 = 0.3997	1003.7	1.44834
313.15 K, x1 = 0.4982	1040.55	1.46101
313.15 K, x1 = 0.6001	1074.01	1.47289
313.15 K, x1 = 0.6993	1102.82	1.48252
313.15 K, x1 = 0.7993	1128.73	1.49187
313.15 K, x1 = 0.9002	1152.15	1.50006
313.15 K, x1 = 1	1172.97	1.50736
318.15 K, x1 = 0.1002	847.588	1.39158
318.15 K, x1 = 0.2001	905.966	1.4124
318.15 K, x1 = 0.3002	955.922	1.43077
318.15 K, x1 = 0.3997	998.73	1.44591
318.15 K, x1 = 0.4982	1035.65	1.45864
318.15 K, x1 = 0.6001	1069.17	1.47061
318.15 K, x1 = 0.6993	1098.05	1.48032
318.15 K, x1 = 0.7993	1124.01	1.48973
318.15 K, x1 = 0.9002	1147.47	1.49796
318.15 K, x1 = 1	1168.32	1.50524
323.15 K, x1 = 0.1002	842.312	1.38878
323.15 K, x1 = 0.2001	900.811	1.40956
323.15 K, x1 = 0.3002	950.87	1.42768
323.15 K, x1 = 0.3997	993.761	1.44306
323.15 K, x1 = 0.4982	1030.75	1.45602
323.15 K, x1 = 0.6001	1064.33	1.4681
323.15 K, x1 = 0.6993	1093.26	1.47795
323.15 K, x1 = 0.7993	1119.27	1.48748
323.15 K, x1 = 0.9002	1140.78	1.49582
323.15 K, x1 = 1	1163.67	1.5032

COC(=O)CCCCC(=O)OC [dimethyl 1,6-hexanedioate] + CCCCO
Conditions	mass density, [1] [kg/m3]	refractive index, [2]
288.15 K, x1 = 0.0999	854.546	1.40584
288.15 K, x1 = 0.2004	890.617	1.40986
288.15 K, x1 = 0.2999	921.957	1.41343
288.15 K, x1 = 0.4003	949.859	1.41668
288.15 K, x1 = 0.4999	974.548	1.41965
288.15 K, x1 = 0.6007	996.907	1.42221
288.15 K, x1 = 0.6996	1016.65	1.42454
288.15 K, x1 = 0.7994	1034.84	1.4267
288.15 K, x1 = 0.8991	1051.42	1.42867
288.15 K, x1 = 1	1066.79	1.4305
293.15 K, x1 = 0.0999	850.5	1.40378
293.15 K, x1 = 0.2004	886.373	1.40776
293.15 K, x1 = 0.2999	917.562	1.41135
293.15 K, x1 = 0.4003	945.34	1.41458
293.15 K, x1 = 0.4999	969.9	1.41754
293.15 K, x1 = 0.6007	992.211	1.4201
293.15 K, x1 = 0.6996	1011.89	1.42243
293.15 K, x1 = 0.7994	1030.03	1.4246
293.15 K, x1 = 0.8991	1046.58	1.42658
293.15 K, x1 = 1	1061.93	1.42842
298.15 K, x1 = 0.0999	846.433	1.40169
298.15 K, x1 = 0.2004	882.112	1.40568
298.15 K, x1 = 0.2999	913.148	1.40925
298.15 K, x1 = 0.4003	940.805	1.41247
298.15 K, x1 = 0.4999	965.3	1.41541
298.15 K, x1 = 0.6007	987.507	1.418
298.15 K, x1 = 0.6996	1007.13	1.42033
298.15 K, x1 = 0.7994	1025.22	1.4225
298.15 K, x1 = 0.8991	1041.74	1.42451
298.15 K, x1 = 1	1057.06	1.42636
303.15 K, x1 = 0.0999	842.341	1.39959
303.15 K, x1 = 0.2004	877.825	1.40356
303.15 K, x1 = 0.2999	908.714	1.40713
303.15 K, x1 = 0.4003	936.253	1.41033
303.15 K, x1 = 0.4999	960.66	1.41329
303.15 K, x1 = 0.6007	982.791	1.41588
303.15 K, x1 = 0.6996	1002.36	1.41823
303.15 K, x1 = 0.7994	1020.41	1.42042
303.15 K, x1 = 0.8991	1036.89	1.42242
303.15 K, x1 = 1	1052.18	1.42429
308.15 K, x1 = 0.0999	838.219	1.39746
308.15 K, x1 = 0.2004	873.513	1.40144
308.15 K, x1 = 0.2999	904.259	1.40498
308.15 K, x1 = 0.4003	931.684	1.4082
308.15 K, x1 = 0.4999	955.998	1.41109
308.15 K, x1 = 0.6007	978.06	1.41376
308.15 K, x1 = 0.6996	997.573	1.41612
308.15 K, x1 = 0.7994	1015.59	1.41832
308.15 K, x1 = 0.8991	1032.04	1.42035
308.15 K, x1 = 1	1047.31	1.42222
313.15 K, x1 = 0.0999	834.066	1.39533
313.15 K, x1 = 0.2004	869.172	1.3993
313.15 K, x1 = 0.2999	899.775	1.40285
313.15 K, x1 = 0.4003	927.091	1.40603
313.15 K, x1 = 0.4999	951.32	1.40901
313.15 K, x1 = 0.6007	973.316	1.41163
313.15 K, x1 = 0.6996	992.781	1.41402
313.15 K, x1 = 0.7994	1010.76	1.41623
313.15 K, x1 = 0.8991	1027.18	1.41828
313.15 K, x1 = 1	1042.43	1.42017
318.15 K, x1 = 0.0999	829.874	1.39323
318.15 K, x1 = 0.2004	864.799	1.39716
318.15 K, x1 = 0.2999	895.264	1.40072
318.15 K, x1 = 0.4003	922.473	1.40393
318.15 K, x1 = 0.4999	946.622	1.40688
318.15 K, x1 = 0.6007	968.555	1.40952
318.15 K, x1 = 0.6996	987.974	1.4119
318.15 K, x1 = 0.7994	1005.91	1.41415
318.15 K, x1 = 0.8991	1022.31	1.41622
318.15 K, x1 = 1	1037.54	1.41819
323.15 K, x1 = 0.0999	825.64	1.39109
323.15 K, x1 = 0.2004	860.391	1.39505
323.15 K, x1 = 0.2999	890.725	1.39859
323.15 K, x1 = 0.4003	917.832	1.40177
323.15 K, x1 = 0.4999	941.902	1.40473
323.15 K, x1 = 0.6007	963.778	1.4074
323.15 K, x1 = 0.6996	983.155	1.40981
323.15 K, x1 = 0.7994	1001.06	1.41207
323.15 K, x1 = 0.8991	1017.44	1.41416
323.15 K, x1 = 1	1032.64	1.41614
